{"source": "patent US12016358B2", "about": "“Composition comprising taste modulation compounds, their use and foodstuff comprising them” (V. MANE FILS, priority 2015, dated 2024)", "assay_type_in_all_cases": "in vivo, human", "key": {"[1]": {"tested_on": "Complexity and Body of Wine", "assay": "Wine, expert tasters", "settings": "5 ppm (each); vs Control", "protocol": "Pantolactone (D-isomer) and mevalonolactone were added individually or as a mixture at 5 ppm each to wine."}, "[2]": {"tested_on": "Saltiness and Salivation (cheese sauce)", "assay": "Various levels of pantolactone (D-isomer) in cheese sauce, expert tasters", "settings": "for Saltiness score: 1 = low up to 5 = high, Control 1", "excerpt": "Five expert tasters consumed the Control and then samples comprising various levels of pantolactone (D-isomer). It was concluded that pantolactone (D-isomer) is clean tasting up to 10-12 ppm in cheese sauce."}, "[3]": {"tested_on": "Flavour Balance of a Tomato-Based Condiment", "assay": "Ketchup samples, expert panel", "settings": "5.4 ppm; vs Control (0.1% ethyl alcohol)", "protocol": "Ketchup containing sucrose as the base sweetener in two different formulations and ketchup containing sucralose as the base sweetener in a third formulation were evaluated without (control) and with addition of pantolactone added at 5.4 ppm (test)."}, "[4]": {"tested_on": "Sweetness of Rebaudioside-A", "assay": "Sweetness of Rebaudioside-A water solutions, expert tasters", "excerpt": "The product containing either 25 or 250 ppm Reb-A without pantolactone (Control) is compared with the product containing pantolactone (D-isomer) added at either 5, 10 or 20 ppm as noted in Table 6."}, "[5]": {"tested_on": "umami taste perception (chicken broth)", "assay": "Chicken broth, expert tasters", "settings": "Campbell's chicken noodle soup broth 50:50 with water; 5 ppm (each); vs Control", "excerpt": "Five expert tasters consumed the Control (chicken broth) and then chicken broth with either 5 ppm of pantolactone (D-isomer) or 5 ppm of mevalonolactone."}, "[6]": {"tested_on": "Heat Perception of Chili Extract Paste", "assay": "Heat perception of chili extract paste in water, expert tasters", "settings": "5 ppm", "protocol": "Pantolactone (D-isomer) and mevalonolactone were added at 5 ppm to chili extract paste and dissolved in water.\nThe taste perception of the product without the flavour modifying composition (Control) was compared with the same product (Test) containing the flavour modifying composition. Four expert tasters consumed the chili extract paste solution alone and then the tasters consumed one of two different dilution formats (medium or hot) of the chili extract paste solution containing 5 ppm of either pantolactone (D-isomer) or mevalonolactone."}, "[7]": {"tested_on": "Sweetness and Bitterness of Milk Chocolate", "assay": "Milk chocolate, expert testers", "settings": "5 ppm, vs Control", "excerpt": "The taste perception of the product without the addition of flavour modification compostion (Control) was compared with the same product (Test) containing the flavour modifying composition."}, "[8]": {"tested_on": "Salt Taste in a Low Sodium Soy Sauce", "assay": "Low sodium soy sauce, expert tasters", "settings": "5 ppm solution, 1 ml (0.005 mg) between two 1 g soy sauce portions", "protocol": "Low sodium soy sauce (Kikkoman's®) was evaluated without and with a water based solution of 2-acetyl-butyrolactone and 4-hydroxy-6-methyl-2-pyrone at 5 ppm concentration. Five expert tasters consumed 1 g low sodium soy sauce alone, then 1 ml of flavour modifying solution, and then again 1 g of the low sodium soy sauce."}, "[9]": {"tested_on": "Saltiness of Cheese Sauce", "assay": "Cheese sauce (Ragu), expert tasters", "settings": "5 ppm solution, 1 ml (0.005 mg) between two 20 g portions", "protocol": "Cheese sauce (Ragu®) was evaluated without and with a water based solution of 2-acetyl-butyrolactone and 4,6-dimethyl-alpha-pyrone at 5 ppm concentration. Five expert tasters consumed 20 g cheese sauce alone, then 1 ml of flavour modifying solution, and then again 20 g of cheese sauce."}, "[10]": {"tested_on": "Saltiness and Salivation (cheese sauce)", "assay": "Mixtures of pantolactone, m-cresol and 3-n-propylphenol in cheese sauce, expert tasters", "excerpt": "A number of combinations of Pantolactone, m-cresol and 3-n-propylphenol are noted in Table 15. Five expert tasters consumed the Control and then each of the treatments and recorded a score."}, "[11]": {"tested_on": "Salt Taste in a Chicken Powder Solution", "assay": "Saltiness of chicken powder solution, DFR panel", "settings": "chicken powder and sodium chloride in water, 5 ppm", "protocol": "Panelists evaluated all samples in fully enclosed partitioned booths under white lights. Fizz NETWORK Software Acquisitions Biosystemes 2.478 was used for data collection. Each panelist was provided with filtered water for rinsing and instructed to follow a strict rinsing procedure. The rinsing protocol required panelists to rinse prior to tasting the first sample, and after tasting each sample.\nSamples were evaluated using a Deviation from Reference (DFR) method. Panelists were given an identified reference labeled “000” and a coded sample simultaneously. The coded sample was either a blind, coded reference or a coded test sample. The panelists were instructed to taste the reference (000) first and mentally evaluate its SALTINESS intensity. Panelists were then instructed to taste and rate the coded sample's intensity for SALTINESS compared to the identified reference. Sample sets were given to the panelists in balanced, randomized order. A one-minute wait period was enforced between sample sets to reduce flavour carryover.\nPanelists rated SALTINESS intensity difference from the reference using a 9-pt scale anchored with the following descriptors: (−4) Extremely less than Reference, (0) Same as Reference, (4) Extremely more than Reference. Number values were NOT shown on the scale. Statistical mean differences were calculated using one-way ANOVA using Fizz Calculations Biosystemes 2.478. […]"}, "[12]": {"settings": "water, 25 ppm Reb-A, 20 ppm pantolactone (D-isomer)"}}, "note": "“Also recorded” adds a separate entry of the source. Marks after values point to notes of the source that are not given here.", "data": [{"smiles": "CC1(C)COC(=O)C1O", "note": "(single isomer, unassigned) [pantolactone (D-isomer)]", "values": [{"measurement": "perception of complexity and body, Box red wine - Vella Burgundy California Table Wine", "setting": "[1]", "value": "more complex and having more body"}, {"measurement": "Salivation effect", "setting": "[2]; 0.54 ppm", "value": "no"}, {"measurement": "Saltiness score", "setting": "[2]; 0.54 ppm", "value": 1.8}, {"measurement": "Salivation effect", "setting": "[2]; 2.7 ppm", "value": "yes"}, {"measurement": "Saltiness score", "setting": "[2]; 2.7 ppm", "value": 2.2}, {"measurement": "Salivation effect", "setting": "[2]; 5.4 ppm", "value": "yes"}, {"measurement": "Saltiness score", "setting": "[2]; 5.4 ppm", "value": 2.5}, {"measurement": "Salivation effect", "setting": "[2]; 10.8 ppm", "value": "yes"}, {"measurement": "Saltiness score", "setting": "[2]; 10.8 ppm", "value": 3}, {"measurement": "Salivation effect", "setting": "[2]; 27 ppm", "value": "yes"}, {"measurement": "Saltiness score", "setting": "[2]; 27 ppm", "value": "3 **"}, {"measurement": "Observations Ketchup sucralose-based, Source #3", "setting": "[3]", "value": "improved dramatically in all elements"}, {"measurement": "Observations Ketchup sucrose-based, Source #1", "setting": "[3]", "value": "enhanced in a balanced way"}, {"measurement": "Observations Ketchup sucrose-based, Source #2", "setting": "[3]", "value": "taste enhancement but not in a balanced way"}, {"measurement": "sweetness vs control sample", "setting": "[4]; increasing levels added to 25 ppm Reb-A water solutions, up to 20 ppm", "value": "more sweetness than the control sample"}, {"measurement": "perception of sweetness", "setting": "[4]; increasing levels added to 250 ppm Reb-A water solutions", "value": "cleaner upfront perception of sweetness with less lingering taste"}, {"measurement": "Taster Observations Taster 1", "setting": "[4]; [12]", "value": "second sweetest"}, {"measurement": "Taster Observations Taster 2", "setting": "[4]; [12]", "value": "sweet like 10 ppm"}, {"measurement": "Observations", "setting": "[5]", "value": "amplify umami taste perception; also recorded: Fatty from chicken fat; also recorded: Enhanced umami"}, {"measurement": "perception of heat (conclusion)", "setting": "[6]", "value": "lower perception of heat and less lingering of heat"}, {"measurement": "sweetness and bitterness perception, Hershey's Bliss Chocolate", "setting": "[7]", "value": "perceived sweeter and less bitter"}]}, {"smiles": "CC(=O)C1CCOC1=O", "note": "(stereo not shown) [2-acetyl-butyrolactone]", "values": [{"measurement": "Kikkoman's Low Sodium Soy Sauce: taste observation", "setting": "[8]", "value": "amplified saltiness; also recorded: slightly amplified saltiness"}, {"measurement": "Cheese Sauce: taste observation", "setting": "[9]", "value": "amplified saltiness; also recorded: Slightly amplified umami"}]}, {"smiles": "CCCc1cccc(O)c1", "note": "[3-n-propylphenol]", "values": [{"measurement": "conclusion on blends / components", "setting": "[10]", "value": "effective, but exhibits flavour aroma character at slightly elevated levels"}]}, {"smiles": "Cc1cc(C)oc(=O)c1", "note": "[4,6-dimethyl-alpha-pyrone]", "values": [{"measurement": "Cheese Sauce: taste observation", "setting": "[9]", "value": "amplified saltiness; also recorded: Slightly amplified umami"}]}, {"smiles": "Cc1cc(O)cc(=O)o1", "note": "[4-hydroxy-6-methyl-2-pyrone]", "values": [{"measurement": "Kikkoman's Low Sodium Soy Sauce: taste observation", "setting": "[8]", "value": "amplified saltiness"}]}, {"smiles": "C[C@@]1(O)CCOC(=O)C1", "note": "[mevalonolactone]", "values": [{"measurement": "perception of complexity and body, Box red wine - Vella Burgundy California Table Wine", "setting": "[1]", "value": "more complex and having more body"}, {"measurement": "Observations", "setting": "[5]", "value": "amplify umami taste perception; also recorded: Enhanced umami; also recorded: Fatty from chicken fat"}, {"measurement": "perception of heat (conclusion)", "setting": "[6]", "value": "enhanced perception of fruitiness but no change in the perception of heat"}]}, {"smiles": "CC1(C)COC(=O)C1O", "note": "(stereo not shown) [pantolactone, dihydro-3-hydroxy-4,4-dimethyl-2(3H)-furanone]", "values": [{"measurement": "difference in SALTINESS between Control and Variant", "setting": "[11]; Control presented as the reference", "value": "significant difference"}, {"measurement": "difference in SALTINESS between Control and Variant", "setting": "[11]; Variant presented as the reference", "value": "not a significant difference in SALTINESS"}]}]}
